Measurements published in patent publication US7964341B2, “Human endogenous retrovirus K102 with foamy-virus-like properties and uses thereof” (priority 2005, dated 2011).

Test system: HERV-K102 replication (cDNA production) in cultured cord blood cells
Assay: Screening for agents able to modulate HERV-K102 replication (cDNA production) in cultured cord blood cells, real time PCR ddCt ratio
Format: cell-based, human
Conditions: for effect on HERV-K102 replication in cultured CB cells: approximately 10^-6 M or equivalent, harvested day 5
Source text: First we wished to show in normal lymphocytes that there are increased levels of HERV-K102 pol DNA over and above genomic when HERV-K102 associated particles are made. For this we extracted DNA and then performed the HERV-K102 ddCt ratio. Please see FIG. 15 for the sequences and location of the forward and reverse primers and the probe used for the real time PCR. […] We developed a ddCt ratio real time PCR method (relative quantitation) which takes the difference between HERV-K102 pol and 18 s RNA Ct's (delta Ct), and subtracts this from the same performed on commercial normal adult genomic DNA (male) (the delta delta Ct). Then we use the algorithm 2−(ddCt) to calculate the relative ratio of HERV-K102 to genomic DNA. This index when elevated above normal ratios (see Table 3 for these ratios) for fluids with contaminating cells (eg plasma and saliva) indicates an excess of non-genomic DNA templates and could be taken as a surrogate marker for putative particles in the sample. […] Since real time PCR is so sensitive, and we were only interested in the DNA copy number of HERV-K102 pol, we subsequently used the Qiagen DNA Mini kit for DNA extractions of plasma.
Commercially available master mix buffer can be purchased with or without Amperase-UNG a highly purified enzyme Uracil-N-Glycosylase, which when included in the buffer for the real time PCR will digest any DNA or cDNA templates containing uracil. […] Thus, if any isolated DNA becomes digested it must be non-genomic.
Finally we investigated certain natural products, drugs and peptide cytokines for their ability to regulate HERV-K replication such as measured in CB cells (Table 7). These agents were tested at approximately 10^−6 M or equivalent. We harvested the study on day 5. […] Tuftsin is naturally cleaved from the FC region of IgG and is considered an immunoenhancing substance and the 1/5000 concentration is usually employed to show its enhancing effects on the activation of monocytes.
Cord blood (CB) isolation. Under aseptic conditions, cord blood was collected into heparinized tubes and peripheral blood mononuclear cells (PBMC) were prepared as follows: the blood was centrifuged at 2700 rpm for 10 minutes, and the buffy coat placed in 5 mls of media (defined as IMDM plus 0.2% penicillin/gentamycin). The mixture was layered onto Ficoll-Paque (Pharmacia #17-0840-03) in a ratio of 1/3 Ficoll to blood suspension. The tubes were centrifuged 30 minutes at 1600 rpm.

[1] = cord blood harvested Day 5, agents at approximately 10^-6 M or equivalent, Day 5 control 2.19
[2] = cord blood harvested Day 5, agents at approximately 10^-6 M or equivalent, relative to Day 5 control ddCt ratio
[3] = cord blood Day 5, uracil-N-glycosylase in master mix, agents at approximately 10^-6 M or equivalent
[4] = Tuftsin 1/5000, cord blood Day 5

Row | Compound | effect on HERV-K102 replication in cultured CB cells | HERV-K102 ddCt Ratio [1] | Level of Control Activity (%) [2] | ddCt performed with UNG [3] | also measured
1 | C[C@]12CC[C@H](O)CC1=CC[C@@H]1[C@@H]2CC[C@]2(C)C(=O)CC[C@@H]12 [DHEA, dihydroepiandrosterone] | enhanced HERV-K102 replication | 2.60 | 119% | – | –
2 | C[C@]12CC[C@@H]3c4ccc(O)cc4CC[C@H]3[C@@H]1CC[C@@H]2O [E2, estradiol] | – | – | 133% | – | –
3 | CC1=C(c2ccc(O)cc2)[C@H](c2ccc(OCCN3CCCCC3)cc2)Oc2cc(O)ccc21 [EM652] | enhanced HERV-K102 replication | 3.07 | 140% | 2.06 (100%) | –
4 | CC/C(=C(\c1ccccc1)c1ccc(OCCN(C)C)cc1)c1ccccc1 [Tamoxifen, tamoxifen] | enhanced HERV-K102 replication | 3.43 | 157% | 2.64 (63%) | –
5 | Tuftsin | – | – | – | – | Level of Control Activity (%) (Tuftsin 1/500, cord blood Day 5): 65.7%; HERV-K102 ddCt Ratio (Tuftsin 1/500, cord blood Day 5, control 2.19): 1.44; Level of Control Activity (%) [4]: 189%; ddCt performed with UNG [4]: 2.10; HERV-K102 ddCt Ratio (Tuftsin 1/5000, cord blood Day 5, control 2.19): 4.14; effect on HERV-K102 replication (Tuftsin at high levels (1/500)): inhibited HERV-K102 replication; effect on HERV-K102 replication (Tuftsin at low levels (1/5000)): enhanced HERV-K102 replication; effect on HERV-BZU activation (depending on concentration, refers to Table 7): can enhance or inhibit HERV-BZU activation
